Reference: patent US6316423A, “Method of treating ischemic, hypoxic and anoxic brain damage” (priority 1999, dated 2001)

System: adenosine A1 receptors
Assay: not given
Settings: cited from earlier work

Row | SMILES | antagonistic properties at adenosine A1 receptors
1 | NC(=O)N1c2ccccc2C=Cc2ccccc21 [carbamazepine] | marginal

Molecular target: T1, Rat A1 adenosine receptor (Rattus norvegicus, UniProt P25099)
T1 construct: A1 adenosine receptors isolated from rats; from tissue
T1 sequence (P25099 1-326): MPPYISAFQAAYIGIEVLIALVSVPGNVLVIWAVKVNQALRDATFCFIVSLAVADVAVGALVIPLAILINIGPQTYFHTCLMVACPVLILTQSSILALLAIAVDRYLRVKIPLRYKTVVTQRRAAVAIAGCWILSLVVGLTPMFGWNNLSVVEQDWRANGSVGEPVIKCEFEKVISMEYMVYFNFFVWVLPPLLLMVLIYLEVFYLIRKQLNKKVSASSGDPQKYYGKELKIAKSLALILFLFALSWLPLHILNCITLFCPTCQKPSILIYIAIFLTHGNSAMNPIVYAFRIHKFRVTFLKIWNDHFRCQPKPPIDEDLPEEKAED
Assay: Affinity for A1 adenosine receptors isolated from rats
Format: binding
Settings: not given
Text: These methods are known in the art. For example, the synthesis of these compounds can be guided by U.S. Pat. No. 5,248,770 or by Jacobson et al., Journal of Medicinal Chemistry, 28, 1341-1346 (1985).

Row | SMILES | Ki [nM]
2 | NCCCCNC(=O)Cc1ccc(NC(=O)Cc2ccc(Nc3ncnc4c3ncn4[C@@H]3O[C@H](CO)[C@@H](O)[C@H]3O)cc2)cc1 | 1.91 ± 0.17
3 | Cc1ccc(C(=O)NCCNC(=O)Cc2ccc(NC(=O)Cc3ccc(Nc4ncnc5c4ncn5[C@@H]4O[C@H](CO)[C@@H](O)[C@H]4O)cc3)cc2)cc1 [compound 4] | 11.9 ± 2
4 | NCCCNC(=O)Cc1ccc(NC(=O)Cc2ccc(Nc3ncnc4c3ncn4[C@@H]3O[C@H](CO)[C@@H](O)[C@H]3O)cc2)cc1 | 1.96 ± 0.06

Continued, values first:

Row | Ki [nM] | SMILES
5 | 7.95 ± 0.76 | Cc1ccc(C(=O)NCCCCNC(=O)Cc2ccc(NC(=O)Cc3ccc(Nc4ncnc5c4ncn5[C@@H]4O[C@H](CO)[C@@H](O)[C@H]4O)cc3)cc2)cc1 [compound 6]
6 | 5.67 ± 0.055 | Cc1ccc(C(=O)NCCCNC(=O)Cc2ccc(NC(=O)Cc3ccc(Nc4ncnc5c4ncn5[C@@H]4O[C@H](CO)[C@@H](O)[C@H]4O)cc3)cc2)cc1 [compound 5]
